Measured values reported in PubChem BioAssay AID1645868 (Buhrlage Lab, Dana-Farber Cancer Institute and Novartis …, 2021).
Calls of active or inactive are those of the source.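 The calls were made as follows: active = maximal percent inhibition of the deubiquitinase OTUD3 of at least 30% across the tested doses; inactive = the rest.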

Biological target: OTU domain-containing protein 3 (Homo sapiens) (UniProt Q5T2D3)
Assay: Validation of screening hits, potency titration, in vitro enzymatic, OTU domain-containing protein 3 DUB inhibitors (AID 1645868)
Settings: purified OTUD3, ubiquitin-rhodamine cleavage fluorescence, 2 h

Chain of OTU domain-containing protein 3 (Homo sapiens) (Q5T2D3 whole entry, looked up, the tested form may be a part): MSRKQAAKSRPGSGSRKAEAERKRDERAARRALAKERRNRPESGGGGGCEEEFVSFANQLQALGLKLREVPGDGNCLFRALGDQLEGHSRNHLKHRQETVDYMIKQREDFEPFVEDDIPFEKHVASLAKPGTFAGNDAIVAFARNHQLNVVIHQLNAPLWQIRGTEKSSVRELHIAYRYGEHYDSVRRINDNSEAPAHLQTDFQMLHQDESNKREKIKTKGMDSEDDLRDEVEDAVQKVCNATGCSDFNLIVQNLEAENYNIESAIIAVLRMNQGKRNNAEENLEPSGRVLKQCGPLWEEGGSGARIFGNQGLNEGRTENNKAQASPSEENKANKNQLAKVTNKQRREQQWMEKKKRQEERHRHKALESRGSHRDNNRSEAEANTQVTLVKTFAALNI

| Structure (SMILES) | IC50 |
| --- | --- |
| Cc1cc(C)c2c(-n3cccc3)c(C(=O)NCCc3ccc(S(N)(=O)=O)cc3)sc2n1 | > 50 µM (inactive) |
| CC(C)(C)n1ncc2c(=O)n(Cc3cccc([N+](=O)[O-])c3)cnc21 | > 50 µM (inactive) |
| O=C(Nc1ccc(-c2cn3ccsc3n2)cc1)c1ccc(Cl)c([N+](=O)[O-])c1 | 5.01 µM |
| Cc1cc(=O)n2c3c(c4c(cc13)c(CO)cc(=O)n4C)OC2 | > 50 µM (inactive) |
| COc1cc(Cl)ccc1Oc1ncnc2sc(C)c(C)c12 | > 50 µM (inactive) |
| Cc1ccc(CNC(=O)c2cnc3ccccc3n2)cc1 | > 50 µM (inactive) |
| COc1ccc(OC)c(-n2c(SCC(=O)N3CCc4ccccc43)nnc2-c2cccc(S(=O)(=O)N(C)C)c2)c1 | > 50 µM (inactive) |
| CC(=O)c1sc(NC(=O)c2ccccc2-c2ccc(C(F)(F)F)cc2)nc1C | 41.7 µM |
| CN1CCC(N(C)S(=O)(=O)c2ccc(NC(=O)c3cccc(OCc4ccccc4)c3)cc2)CC1 | > 50 µM (inactive) |
| CN(C)S(=O)(=O)N1CCCC2(C1)Nc1cccnc1NC2=NC1CCCC1 (stereo not drawn) | > 50 µM (inactive) |
| COC(=O)C1C(c2ccc(Cl)cc2Cl)C2(C(=O)c3ccccc3C2=O)C2C=Cc3ccccc3N12 (stereo not drawn) | > 50 µM (inactive) |
| COc1ccc(OC)c(NC(=O)CNC(=O)c2cc3c(OC)cccc3[nH]2)c1 | > 50 µM (inactive) |
| CC1CCc2c(sc3ncnc(OCc4cccc([N+](=O)[O-])c4)c23)C1 (stereo not drawn) | > 50 µM (inactive) |
| O=C(NCC(c1cccnc1)N1CCc2ccccc2C1)C(=O)Nc1ccc2c(c1)OCO2 (stereo not drawn) | 37.7 µM |
| O=c1c2cc([N+](=O)[O-])ccc2nc(CN2CCN(c3ccccn3)CC2)n1-c1ccccc1F | > 50 µM (inactive) |
| O=C(CSc1nnnn1-c1ccccc1)Nc1ccccc1 | > 50 µM (inactive) |
| O=C(Cc1ccc(Cl)c(Cl)c1)OCC(=O)c1c[nH]c2ccccc12 | > 50 µM (inactive) |
| CCc1nnc(NC(=O)c2nnn(-c3ccccc3Cl)c2C)s1 | > 50 µM (inactive) |
| Cc1c(Cl)cccc1NC(=O)Cn1ccc2ccccc2c1=O | > 50 µM (inactive) |
| CC(C)CCN1C(=O)C2C(C(=O)Nc3ccc(Oc4ccccc4)cc3)C3C=CC2(O3)C1C(=O)NC1CCCCC1 (stereo not drawn) | 30.7 µM |
| O=C(COc1cccc2c1CCN(Cc1cccnc1)C2=O)Nc1ccc2c(c1)OCCO2 | > 50 µM (inactive) |
| CSc1nccc(-c2ccc(F)cc2)c1C#N | > 50 µM (inactive) |
| Cc1nn(-c2ccc(F)cc2)cc1-c1noc(C(=O)NCc2ccccn2)n1 | 25.1 µM |
| COc1cccc2cccc(O)c12 | > 50 µM (inactive) |

| Structure (SMILES) | IC50 |
| --- | --- |
| N[C@@H](Cc1ccccc1)C(=O)N1CCC2(CC1)CN(C(=O)c1ccc(Cl)cc1)CCO2 | > 50 µM (inactive) |
| CC1=C(c2ccc(F)cc2)S(=O)(=O)N=C1Nc1ccc(Cl)cc1 | > 50 µM (inactive) |
| COc1ccccc1-n1nnc(C(=O)Nc2ccc(Oc3ccccc3)cc2)c1C | > 50 µM (inactive) |
| Cc1cccc(C)c1NC(=O)Cn1c(=O)n(CCCCC(=O)NCc2ccc3c(c2)OCO3)c(=O)c2ccccc21 | 2.82 µM |
| CC(=O)c1ccc(NC(=O)c2ccc(N3CCCCS3(=O)=O)cc2Cl)cc1 | 37 µM |
| O=C(Cn1ccc2ccc(N3CCOCC3)nc21)NCc1ccccc1F | > 50 µM (inactive) |
| CCOc1ccccc1NC(=O)Cn1c(-c2ccc3c(c2)OCO3)cn(-c2ccc(OC)cc2)c1=O | > 50 µM (inactive) |
| NC(=O)c1ccc(NC(=O)Cc2cc(-c3ccc(Cl)cc3)on2)cc1 | > 50 µM (inactive) |
| O=c1c2ccccc2ncn1C1CCN(S(=O)(=O)c2ccccc2F)CC1 | > 50 µM (inactive) |
| CC(=O)Nc1ccc(S(=O)(=O)NCc2ccc(C(=O)NCCc3ccc(Cl)cc3)cc2)cc1 | 11.8 µM |
| Cc1ccccc1-c1noc(-c2ccccc2OCC(=O)NC(C)C)n1 | > 50 µM (inactive) |
| O=C(NCCCN1CCc2ccccc2C1)c1cc2c(s1)CS(=O)(=O)C2 | > 50 µM (inactive) |
| Cc1c2c(nc3ccccc13)-c1ccccc1CC2 | > 50 µM (inactive) |
| Cc1c(OCC(=O)Nc2nc3ccccc3[nH]2)ccc2c3c(c(=O)oc12)CCC3 | 2.66 µM |
| O=C1c2ccccc2-n2c1nc1ccccc1c2=O | > 50 µM (inactive) |
| O=C(Nc1cccc(C(F)(F)F)c1)c1cc2c(s1)-c1ccccc1OC2 | 15.2 µM |
| O=C(NCc1ccc(Cl)cc1)Nc1cccc2ccccc12 | > 50 µM (inactive) |
| Cc1ccc(-c2nnc(-n3ncc(C#N)c3N)c3ccccc23)cc1C | > 50 µM (inactive) |
| COc1cccc(N2CCN(C(=O)CCNS(=O)(=O)c3ccc4c(c3)CCC(=O)N4)CC2)c1 | > 50 µM (inactive) |
| COc1ccc(C2CC(c3ccc(C)cc3)N(C(=O)C3CC3)c3ncnn32)cc1 (stereo not drawn) | > 50 µM (inactive) |
| O=C(Nc1ccc(F)cc1)Nc1ccccc1OCc1cc(=O)n2ccccc2n1 | 39.3 µM |
| O=C(Cc1nnc2c(-c3nc(C4CC4)no3)cccn12)Nc1ccccc1 | 22.8 µM |
| O=C(NC1CCN(Cc2ccccc2)CC1)c1[nH]nc2c1COc1ccccc1-2 | > 50 µM (inactive) |
| Cc1sc(NC(=O)/C=C/c2ccco2)nc1-c1ccccc1 | > 50 µM (inactive) |

| Structure (SMILES) | IC50 |
| --- | --- |
| Cc1cc(C(=O)Nc2ccc3c(c2)OCCO3)no1 | > 50 µM (inactive) |
| C[C@@H]1O[C@@H](O[C@H]2[C@H](O[C@H]3[C@H](O[C@H]4CC[C@@]5(C)[C@@H](CC[C@]6(C)[C@@H]5CC=C5[C@@H]7CC(C)(C)CC(=O)[C@]7(C)CC[C@]56C)[C@@]4(C)CO)O[C@H](C(=O)O)[C@@H](O)[C@@H]3O)OC[C@@H](O)[C@@H]2O)[C@H](O)[C@H](O)[C@H]1O | > 50 µM (inactive) |
| CS(=O)(=O)N1CCCc2cc(C(=O)Nc3ccc(Oc4ccccc4)cc3)ccc21 | > 50 µM (inactive) |
| CN(C)c1ccc(/C=N/NC(=O)c2ccc(Cl)cc2)cc1 | 24.1 µM |
| COc1cccc(NC(=O)c2ccc(F)cc2Cl)c1 | > 50 µM (inactive) |
| CCc1noc(Cn2cnc3c4ccccc4n(CC(=O)NC4CCCCC4)c3c2=O)n1 | > 50 µM (inactive) |
| N#Cc1c(N)nc2c(c1N)C(c1ccccc1)CO2 (stereo not drawn) | > 50 µM (inactive) |
| O=C(COC(=O)CCc1ccc(S(=O)(=O)N2CCOCC2)cc1)Nc1ccc2c(c1)OCCO2 | > 50 µM (inactive) |
| CC[C@H](C)[C@H](NC(=O)[C@H]([C@@H](C)CC)N(C)C(C)=O)C(=O)N[C@H](C(=O)N[C@@H](CC(C)C)C(=O)C1(C)CO1)[C@@H](C)O (stereo partly drawn) | > 50 µM (inactive) |
| COc1ccc(-c2cc(C(=O)NC3CCCCCC3)[nH]n2)cc1S(=O)(=O)N(C)C | > 50 µM (inactive) |
| O=C(CCSc1ccc(Cl)cc1)c1cccs1 | 21.5 µM |
| Cc1cccc(OCCn2c(CCNC(=O)C3CCCCC3)nc3ccccc32)c1 | 32.8 µM |
| N#Cc1cc2c(nc1SCC(=O)NCc1ccccc1)CCCC2 | > 50 µM (inactive) |
| O=C(/C=C/c1ccccc1)N1CCN(C2=NS(=O)(=O)c3ccccc32)CC1 | > 50 µM (inactive) |
| c1coc(CNc2nc(Nc3cccc4ccccc34)nc3ccccc23)c1 | > 50 µM (inactive) |
| CCCc1nc2sc3c(NCCc4ccc(OC)c(OC)c4)ncnc3c2c2c1CCC2 | > 50 µM (inactive) |
| COc1ccc(NC(=O)COc2ccc3ccc(=O)oc3c2)cc1 | > 50 µM (inactive) |
| CCOC(=O)c1cn(C2CC2)c2cc(N3CCNCC3)c([N+](=O)[O-])cc2c1=O | > 50 µM (inactive) |
| O=C(Nc1ccc(F)c(Cl)c1)c1ccc(N2CCCCS2(=O)=O)cc1Cl | > 50 µM (inactive) |
| Cc1ccc(C)c(S(=O)(=O)N2CCN(c3ccc4nnc(-c5ccco5)n4n3)CC2)c1 | > 50 µM (inactive) |
| CCOc1ccc(-c2cc3nc(C4CCN(C(=O)OC(C)(C)C)CC4)c(C(=O)Nc4cc(F)ccc4F)cn3n2)cc1 | > 50 µM (inactive) |
| Fc1cnc(N2CC[C@H]3CO[C@H](CNc4ncccn4)[C@H]3C2)nc1 | > 50 µM (inactive) |
| CCc1nc(-c2cc(C(=O)N3CCOCC3)c3ccccn23)cs1 | > 50 µM (inactive) |
| COCCCNC(=O)c1ccc(Cn2c(=O)c3ccccc3n(CC(=O)NC3CCCCC3)c2=O)cc1 | 32.3 µM |

| Structure (SMILES) | IC50 |
| --- | --- |
| CCCC1Cc2c(sc3nc(SCC)nc(N)c23)CO1 (stereo not drawn) | 26.9 µM |
| Cc1cnnn1-c1ccc(C(=O)Nc2cc(Cl)ccc2Cl)cc1 | > 50 µM (inactive) |
| O=C(CSc1nnc(Cn2cnc3ccccc32)o1)Nc1ccc([N+](=O)[O-])cc1 | 20.2 µM |
| COc1c2nc3ccccc3oc-2cc(=O)c1OC | > 50 µM (inactive) |
| Cc1nn(Cc2ccccc2)c(Cl)c1C(=O)NC1CCCc2ccccc21 (stereo not drawn) | > 50 µM (inactive) |
| CCN1C[C@@H]2C[C@]2(c2ccccc2OC)C(=O)c2ncccc21 | > 50 µM (inactive) |
| Fc1cccc(-n2cc(-c3noc(-c4ccc[nH]4)n3)nn2)c1 | > 50 µM (inactive) |
| COc1ccc(OC)c(-c2cn3ccn(-c4ccc5c(c4)CCC5)c(=O)c3n2)c1 | > 50 µM (inactive) |
| Cc1ccc2cc(CNc3ccccc3)c(=O)n(CC(=O)Nc3ccccc3C)c2c1 | 26 µM |
| O=C(CSc1ccc(-c2cccc([N+](=O)[O-])c2)nn1)Nc1cccc(F)c1 | 25.2 µM |
| COc1ccc(-c2[nH]c3ccccc3c2SCCNC(=O)c2ccc(S(=O)(=O)N3CCOCC3)cc2)cc1 | > 50 µM (inactive) |
| CC(=O)Nc1cc2cc(-n3cccc3)ccc2oc1=O | > 50 µM (inactive) |
| Cc1nc2ccccc2nc1SCC(=O)Nc1ccc2c(c1)OCO2 | > 50 µM (inactive) |
| Cc1ccc2[nH]c3c(=O)n(CC4CCCO4)cnc3c2c1 (stereo not drawn) | 44.9 µM |
| O=[N+]([O-])c1ccc2c(c1)nc1n2CCN(Cc2ccco2)C1 | > 50 µM (inactive) |
| COc1ccccc1CNC(=O)CCCCn1c(=O)c2ccccc2n(Cc2ccccc2C#N)c1=O | 16.9 µM |
| COc1cc([C@@H]2c3cc4c(cc3C[C@@H]3COC(=O)[C@H]32)OCO4)cc(OC)c1OC | 20.5 µM |
| COc1cccc(CC(=O)Nc2cc(F)c3nc(N4CCOCC4)ccc3c2)c1 | > 50 µM (inactive) |
| C/C=C(\Cl)C1=CC(=O)[C@]23C[C@H]2[C@@]2(C)CO[C@@]1(O)[C@@]3(O)O2 | > 50 µM (inactive) |
| COc1ccc(N2CCN(Cc3nnnn3Cc3ccc4c(c3)OCO4)CC2)cc1 | > 50 µM (inactive) |
| CCOc1ccc(C2=NCCNC3=C2C(c2ccccc2)N(c2ccccc2)C3=O)cc1 (stereo not drawn) | > 50 µM (inactive) |
